Experimental findings from PMC3407035 (Journal of enzyme inhibition and medicinal chemistry, 2011) are described below.

In test [1] the target is T1, Human GGT1 (gamma-glutamyl transpeptidase, GGT) (Homo sapiens, UniProt P19440). The test can be described thus: pNA release at […] nm, hydrolysis. Conditions: read-out: D-GpNA Minus acceptor; no acceptor, pH 7.4, 37 °C. The format is biochemical.
Test [2] addresses T1, Human GGT1 (gamma-glutamyl transpeptidase, GGT). The test can be described thus: pNA release at […] nm, transpeptidation. It counts as biochemical.

One may read the Ki as the dissociation constant of the complex between target and ligand, obtained from inhibition or displacement.

T1 sequence (P19440 27-380 limits assumed): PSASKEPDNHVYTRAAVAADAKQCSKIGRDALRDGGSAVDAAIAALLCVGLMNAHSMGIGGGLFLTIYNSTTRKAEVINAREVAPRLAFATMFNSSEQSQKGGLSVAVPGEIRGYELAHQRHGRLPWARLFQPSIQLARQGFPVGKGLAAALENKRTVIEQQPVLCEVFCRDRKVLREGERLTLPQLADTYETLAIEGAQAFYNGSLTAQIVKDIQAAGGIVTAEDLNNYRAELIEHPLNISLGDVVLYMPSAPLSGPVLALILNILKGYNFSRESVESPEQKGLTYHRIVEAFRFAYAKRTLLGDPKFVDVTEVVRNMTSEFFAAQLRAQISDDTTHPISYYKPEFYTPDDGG
T1 sequence (P19440 381-569 limits assumed): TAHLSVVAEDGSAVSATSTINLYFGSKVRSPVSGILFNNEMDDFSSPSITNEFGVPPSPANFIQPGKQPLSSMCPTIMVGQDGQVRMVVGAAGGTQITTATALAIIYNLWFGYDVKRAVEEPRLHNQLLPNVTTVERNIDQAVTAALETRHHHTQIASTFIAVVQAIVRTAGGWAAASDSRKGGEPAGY

Turning to `N[C@H](CCC(=O)Nc1ccc([N+](=O)[O-])cc1)C(=O)O` [D-GpNA], in test [1], the Km worked out at 160 ± 20 µM.

Regarding `COc1ccc(Cc2nnc(NS(=O)(=O)c3cccc4ccccc34)s2)cc1` [compound 6, Compound 6], the affinity in test [2], expressed as Ki, was 45.7 ± 3.4 µM.

For the compound `COc1ccc(Cc2nnc(NS(=O)(=O)c3ccc(Cl)cc3)s2)cc1` [compound 10, Compound 10], in test [2], the Ki turned out to be 13.4 ± 0.8 µM. For `Cc1ccc(Cc2nnc(NS(=O)(=O)c3ccc([N+](=O)[O-])cc3)s2)cc1` [compound 17, Compound 17], in test [2], the affinity corresponds to a Ki of 56.9 ± 8.3 µM.

In test [2], `Cc1cccc(Cc2nnc(NS(=O)(=O)c3ccc([N+](=O)[O-])cc3)s2)c1` [compound 18, Compound 18] showed a Ki of 34.3 ± 0.9 µM.
